Measured values as given in patent publication US10538555B2, “Macrocyclic inhibitors of the PD-1/PD-L1 and CD80(B7-1)/PD-L1 protein/protein interactions” (BRISTOL-MYERS SQUIBB COMPANY, priority 2014, dated 2020).
*1 amine or outer side, *2 acyl side, *3 side chain or, on linkers, in order; H or OH if unused. Where a SMILES comes first, the peptide text is derived from it. Bridges are numbered along the chain shown (N, C = ends). [ ]: non-standard residue; d: D form. Trp(1-CH2COOH) = N[C@@H](Cc1cn(CC(=O)O)c2ccccc12)C(=O)O; Phe(3,4,5-F3) = N[C@@H](Cc1cc(F)c(F)c(F)c1)C(=O)O; NMePhe(4-F) = CN[C@@H](Cc1ccc(F)cc1)C(=O)O; d(cisHyp) = O=C(O)[C@H]1C[C@@H](O)CN1; NMeF = CN[C@@H](Cc1ccccc1)C(=O)O; X1 = O=C([C@H]1COCCN1[*:1])[*:2]; dHyp = O=C(O)[C@H]1C[C@H](O)CN1; NMeNle = CCCC[C@H](NC)C(=O)O; dPip = O=C(O)[C@H]1CCCCN1; Orn = NCCC[C@H](N)C(=O)O; Dab = NCC[C@H](N)C(=O)O; Dap = NC[C@H](N)C(=O)O

molecular target: T1, Human PD-L1/PD-1 (Homo sapiens, UniProt Q9NZQ7); assay: HTRF Human PD-L1/PD-1 binding assay (PD-1-Ig/PD-L1-His); details: PD-L1-His 10 nM, PD-1-Ig 20 nM; class symbol; read-out: HTRF Human PD-L1/PD-1 Binding Assay IC50 Range
T1 construct: TVMV protease cleavage site (C); made in house; host or cells: HEK293T cells
Method in brief: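 HTRF competition using HEK293T-expressed human PD-1(25-167)-Ig at 20 nM and PD-L1(18-239)-His at 10 nM, compound incubated first with PD-L1 for 15 min, then with PD-1 for 15 min. Signal read as 665/620 nm ratio 30 min after adding Eu anti-Ig and APC anti-His antibodies.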

T1 sequence (Q9NZQ7 with tags, fused parts or gaps): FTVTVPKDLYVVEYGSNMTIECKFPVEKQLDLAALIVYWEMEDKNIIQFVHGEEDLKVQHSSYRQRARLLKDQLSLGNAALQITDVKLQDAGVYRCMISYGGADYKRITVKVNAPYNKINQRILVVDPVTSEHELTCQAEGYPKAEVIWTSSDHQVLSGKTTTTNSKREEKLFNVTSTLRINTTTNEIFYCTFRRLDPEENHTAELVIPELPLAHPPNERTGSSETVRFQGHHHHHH

`CCCC[C@H]1C(=O)N2CCC[C@@H]2C(=O)N[C@@H](CCN)C(=O)N[C@@H](C(C)C)C(=O)N(C)[C@@H](Cc2ccccc2)C(=O)N[C@@H](CCC(=O)O)C(=O)N2CCCC[C@@H]2C(=O)N[C@@H](Cc2c[nH]c3ccccc23)C(=O)N[C@@H](Cc2ccc(O)cc2)C(=O)N[C@@H](CC(C)C)C(=O)N[C@H](C(=O)NCC(N)=O)CSCC(=O)N[C@@H](Cc2cc(F)c(F)c(F)c2)C(=O)N(C)[C@@H](Cc2ccc(F)cc2)C(=O)N1C` [Example 10577] ({CH2CO}-[Phe(3,4,5-F3)][NMePhe(4-F)][NMeNle][dP][Dab]V[NMeF]E[dPip]WYLCG-NH2; thioether N-13) and `CCCC[C@H]1C(=O)N2CCC[C@@H]2C(=O)N[C@@H](CN)C(=O)N[C@@H](C(C)C)C(=O)N(C)[C@@H](Cc2ccccc2)C(=O)N[C@@H](CCC(=O)O)C(=O)N2CCCC[C@@H]2C(=O)N[C@@H](Cc2c[nH]c3ccccc23)C(=O)N[C@@H](Cc2ccc(O)cc2)C(=O)N[C@@H](CC(C)C)C(=O)N[C@H](C(=O)NCC(N)=O)CSCC(=O)N[C@@H](Cc2cc(F)c(F)c(F)c2)C(=O)N(C)[C@@H](Cc2ccc(F)cc2)C(=O)N1C` [Example 10578] ({CH2CO}-[Phe(3,4,5-F3)][NMePhe(4-F)][NMeNle][dP][Dap]V[NMeF]E[dPip]WYLCG-NH2; thioether N-13) fall in the same range of IC50: 1 to 9.9 nM for the first, 1 to 9.9 nM for the second.

`CCCC[C@H]1C(=O)N2CCC[C@@H]2C(=O)N[C@@H](CC(N)=O)C(=O)N[C@@H](C(C)C)C(=O)N(C)[C@@H](Cc2ccccc2)C(=O)N[C@@H](CCC(=O)O)C(=O)N2CCCC[C@@H]2C(=O)N[C@@H](Cc2c[nH]c3ccccc23)C(=O)N[C@@H](Cc2ccc(O)cc2)C(=O)N[C@@H](CC(C)C)C(=O)N[C@H](C(=O)NCC(N)=O)CSCC(=O)N[C@@H](Cc2cc(F)c(F)c(F)c2)C(=O)N(C)[C@@H](Cc2ccc(F)cc2)C(=O)N1C` [Example 10579] ({CH2CO}-[Phe(3,4,5-F3)][NMePhe(4-F)][NMeNle][dP]NV[NMeF]E[dPip]WYLCG-NH2; thioether N-13) and `CCCC[C@H]1C(=O)N2CCC[C@@H]2C(=O)N[C@@H](CC(N)=O)C(=O)N[C@@H](C(C)C)C(=O)N(C)[C@@H](Cc2ccccc2)C(=O)N[C@@H](CC(=O)O)C(=O)N2CCCC[C@@H]2C(=O)N[C@@H](Cc2c[nH]c3ccccc23)C(=O)N[C@@H](Cc2ccc(O)cc2)C(=O)N[C@@H](CC(C)C)C(=O)N[C@H](C(=O)NCC(N)=O)CSCC(=O)N[C@@H](Cc2cc(F)c(F)c(F)c2)C(=O)N(C)[C@@H](Cc2ccc(F)cc2)C(=O)N1C` [Example 10584] ({CH2CO}-[Phe(3,4,5-F3)][NMePhe(4-F)][NMeNle][dP]NV[NMeF]D[dPip]WYLCG-NH2; thioether N-13) fall in the same range of IC50: 1 to 9.9 nM for the first, 1 to 9.9 nM for the second.

First: CCCC[C@H]1C(=O)N2CCC[C@@H]2C(=O)N[C@@H](CCC(=O)O)C(=O)N[C@@H](C(C)C)C(=O)N(C)[C@@H](Cc2ccccc2)C(=O)N[C@@H](CC(=O)O)C(=O)N2CCCC[C@@H]2C(=O)N[C@@H](Cc2c[nH]c3ccccc23)C(=O)N[C@@H](Cc2ccc(O)cc2)C(=O)N[C@@H](CC(C)C)C(=O)N[C@H](C(=O)NCC(N)=O)CSCC(=O)N[C@@H](Cc2cc(F)c(F)c(F)c2)C(=O)N(C)[C@@H](Cc2ccc(F)cc2)C(=O)N1C [Example 10580] ({CH2CO}-[Phe(3,4,5-F3)][NMePhe(4-F)][NMeNle][dP]EV[NMeF]D[dPip]WYLCG-NH2; thioether N-13)
Second: CCCC[C@H]1C(=O)N2CCC[C@@H]2C(=O)N[C@@H](CCN)C(=O)N[C@@H](C(C)C)C(=O)N(C)[C@@H](Cc2ccccc2)C(=O)N[C@@H](CC(=O)O)C(=O)N2CCCC[C@@H]2C(=O)N[C@@H](Cc2c[nH]c3ccccc23)C(=O)N[C@@H](Cc2ccc(O)cc2)C(=O)N[C@@H](CC(C)C)C(=O)N[C@H](C(=O)NCC(N)=O)CSCC(=O)N[C@@H](Cc2cc(F)c(F)c(F)c2)C(=O)N(C)[C@@H](Cc2ccc(F)cc2)C(=O)N1C [Example 10581] ({CH2CO}-[Phe(3,4,5-F3)][NMePhe(4-F)][NMeNle][dP][Dab]V[NMeF]D[dPip]WYLCG-NH2; thioether N-13)
The IC50 of the first is lower: 1 to 9.9 nM for the first, 10 to 99.9 nM for the second. The first is the more potent here.

`CCCC[C@H]1C(=O)N2CCC[C@@H]2C(=O)N[C@@H](CN)C(=O)N[C@@H](C(C)C)C(=O)N(C)[C@@H](Cc2ccccc2)C(=O)N[C@@H](CC(=O)O)C(=O)N2CCCC[C@@H]2C(=O)N[C@@H](Cc2c[nH]c3ccccc23)C(=O)N[C@@H](Cc2ccc(O)cc2)C(=O)N[C@@H](CC(C)C)C(=O)N[C@H](C(=O)NCC(N)=O)CSCC(=O)N[C@@H](Cc2cc(F)c(F)c(F)c2)C(=O)N(C)[C@@H](Cc2ccc(F)cc2)C(=O)N1C` [Example 10582] ({CH2CO}-[Phe(3,4,5-F3)][NMePhe(4-F)][NMeNle][dP][Dap]V[NMeF]D[dPip]WYLCG-NH2; thioether N-13) and `CCCC[C@H]1C(=O)N2CCC[C@@H]2C(=O)N[C@@H](CO)C(=O)N[C@@H](C(C)C)C(=O)N(C)[C@@H](Cc2ccccc2)C(=O)N[C@@H](CC(=O)O)C(=O)N2CCCC[C@@H]2C(=O)N[C@@H](Cc2c[nH]c3ccccc23)C(=O)N[C@@H](Cc2ccc(O)cc2)C(=O)N[C@@H](CC(C)C)C(=O)N[C@H](C(=O)NCC(N)=O)CSCC(=O)N[C@@H](Cc2cc(F)c(F)c(F)c2)C(=O)N(C)[C@@H](Cc2ccc(F)cc2)C(=O)N1C` [Example 10583] ({CH2CO}-[Phe(3,4,5-F3)][NMePhe(4-F)][NMeNle][dP]SV[NMeF]D[dPip]WYLCG-NH2; thioether N-13) fall in the same range of IC50: 1 to 9.9 nM for the first, 1 to 9.9 nM for the second.

`CCCC[C@H]1C(=O)N2C[C@@H](O)C[C@@H]2C(=O)N[C@@H](CC(=O)O)C(=O)N[C@@H](C(C)C)C(=O)N(C)[C@@H](Cc2ccccc2)C(=O)N[C@@H](CCC(=O)O)C(=O)N2CCCC[C@@H]2C(=O)N[C@@H](Cc2cn(CC(=O)O)c3ccccc23)C(=O)N[C@@H](Cc2ccc(O)cc2)C(=O)N[C@@H](CCN)C(=O)N[C@H](C(=O)NCC(N)=O)CSCC(=O)N[C@@H](Cc2cc(F)c(F)c(F)c2)C(=O)N(C)[C@@H](Cc2ccccc2)C(=O)N1C` [Example 10585] ({CH2CO}-[Phe(3,4,5-F3)][NMeF][NMeNle][dHyp]DV[NMeF]E[dPip][Trp(1-CH2COOH)]Y[Dab]CG-NH2; thioether N-13) and `CCCC[C@H]1C(=O)N2C[C@@H](O)C[C@@H]2C(=O)N[C@@H](CC(=O)O)C(=O)N[C@@H](C(C)C)C(=O)N(C)[C@@H](Cc2ccccc2)C(=O)N[C@@H](CCC(=O)O)C(=O)N2CCCC[C@@H]2C(=O)N[C@@H](Cc2cn(CC(=O)O)c3ccccc23)C(=O)N[C@@H](Cc2ccc(O)cc2)C(=O)N[C@@H](CC(C)C)C(=O)N[C@H](C(=O)NCC(N)=O)CSCC(=O)N[C@@H](Cc2cc(F)c(F)c(F)c2)C(=O)N(C)[C@@H](Cc2ccccc2)C(=O)N1C` [Example 10586] ({CH2CO}-[Phe(3,4,5-F3)][NMeF][NMeNle][dHyp]DV[NMeF]E[dPip][Trp(1-CH2COOH)]YLCG-NH2; thioether N-13) fall in the same range of IC50: 1 to 9.9 nM for the first, 1 to 9.9 nM for the second.

`CCCC[C@H]1C(=O)N2CCC[C@@H]2C(=O)N[C@@H](CO)C(=O)N[C@@H](C(C)C)C(=O)N(C)[C@@H](Cc2ccccc2)C(=O)N[C@@H](CCC(=O)O)C(=O)N2CCCC[C@@H]2C(=O)N[C@@H](Cc2c[nH]c3ccccc23)C(=O)N[C@@H](Cc2ccc(O)cc2)C(=O)N[C@@H](CC(C)C)C(=O)N[C@H](C(=O)NCC(N)=O)CSCC(=O)N[C@@H](Cc2cc(F)c(F)c(F)c2)C(=O)N(C)[C@@H](Cc2ccc(F)cc2)C(=O)N1C` [Example 10587] ({CH2CO}-[Phe(3,4,5-F3)][NMePhe(4-F)][NMeNle][dP]SV[NMeF]E[dPip]WYLCG-NH2; thioether N-13) and `CCCC[C@H]1C(=O)N2CCC[C@@H]2C(=O)N[C@@H](CC(=O)O)C(=O)N[C@@H](C(C)C)C(=O)N(C)[C@@H](Cc2ccccc2)C(=O)N[C@@H](CCC(=O)O)C(=O)N2CCOC[C@@H]2C(=O)N[C@@H](Cc2c[nH]c3ccccc23)C(=O)N[C@@H](Cc2ccc(O)cc2)C(=O)N[C@@H](CC(C)C)C(=O)N[C@H](C(=O)NCC(N)=O)CSCC(=O)N[C@@H](Cc2cc(F)c(F)c(F)c2)C(=O)N(C)[C@@H](Cc2ccc(F)cc2)C(=O)N1C` [Example 10593] ({CH2CO}-[Phe(3,4,5-F3)][NMePhe(4-F)][NMeNle][dP]DV[NMeF]E[X1]WYLCG-NH2; thioether N-13) fall in the same range of IC50: 1 to 9.9 nM for the first, 1 to 9.9 nM for the second.

`CCCC[C@H]1C(=O)N2C[C@H](O)C[C@@H]2C(=O)N[C@@H](CC(=O)O)C(=O)N[C@@H](C(C)C)C(=O)N(C)[C@@H](Cc2ccccc2)C(=O)N[C@@H](CCC(=O)O)C(=O)N2CCOC[C@@H]2C(=O)N[C@@H](Cc2c[nH]c3ccccc23)C(=O)N[C@@H](Cc2ccc(O)cc2)C(=O)N[C@@H](CCCN)C(=O)N[C@H](C(=O)NCC(N)=O)CSCC(=O)N[C@@H](Cc2cc(F)c(F)c(F)c2)C(=O)N(C)[C@@H](Cc2ccc(F)cc2)C(=O)N1C` [Example 10590] ({CH2CO}-[Phe(3,4,5-F3)][NMePhe(4-F)][NMeNle][d(cisHyp)]DV[NMeF]E[X1]WY[Orn]CG-NH2; thioether N-13) and `CCCC[C@H]1C(=O)N2C[C@H](O)C[C@@H]2C(=O)N[C@@H](CC(=O)O)C(=O)N[C@@H](C(C)C)C(=O)N(C)[C@@H](Cc2ccccc2)C(=O)N[C@@H](CCC(=O)O)C(=O)N2CCOC[C@@H]2C(=O)N[C@@H](Cc2c[nH]c3ccccc23)C(=O)N[C@@H](Cc2ccc(O)cc2)C(=O)N[C@@H](CCCCN)C(=O)N[C@H](C(=O)NCC(N)=O)CSCC(=O)N[C@@H](Cc2cc(F)c(F)c(F)c2)C(=O)N(C)[C@@H](Cc2ccc(F)cc2)C(=O)N1C` [Example 10592] ({CH2CO}-[Phe(3,4,5-F3)][NMePhe(4-F)][NMeNle][d(cisHyp)]DV[NMeF]E[X1]WYKCG-NH2; thioether N-13) fall in the same range of IC50: 1 to 9.9 nM for the first, 1 to 9.9 nM for the second.

`CCCC[C@H]1C(=O)N2C[C@H](O)C[C@@H]2C(=O)N[C@@H](CC(=O)O)C(=O)N[C@@H](C(C)C)C(=O)N(C)[C@@H](Cc2ccccc2)C(=O)N[C@@H](CCC(=O)O)C(=O)N2CCOC[C@@H]2C(=O)N[C@@H](Cc2c[nH]c3ccccc23)C(=O)N[C@@H](Cc2ccc(O)cc2)C(=O)N[C@@H](CC(N)=O)C(=O)N[C@H](C(=O)NCC(N)=O)CSCC(=O)N[C@@H](Cc2cc(F)c(F)c(F)c2)C(=O)N(C)[C@@H](Cc2ccc(F)cc2)C(=O)N1C` [Example 10591] ({CH2CO}-[Phe(3,4,5-F3)][NMePhe(4-F)][NMeNle][d(cisHyp)]DV[NMeF]E[X1]WYNCG-NH2; thioether N-13) showed an IC50 of 1 to 9.9 nM.
